Reference: patent US12691112B2, “FGFR tyrosine kinase inhibitors for the treatment of urothelial carcinoma” (Janssen Pharmaceutica NV, priority 2019, dated 2026)
Read-outs that look alike come from different tables or passages of the source.

Test system: subjects with metastatic or surgically unresectable urothelial cancer
[1] = all-causality, 10 mg intermittent, n = 33
[2] = treatment-emergent, all-causality, 8 mg Continuous, Regimen 3 (n = 99)
[3] = treatment-related, 6 mg Continuous, Regimen 2 (n = 78)
[4] = treatment-related, 8 mg Continuous Erdafitinib, Regimen 3 (n = 99)
[5] = treatment-related, 10 mg Intermittent, Regimen 1 (n = 33)

Experimental: Study treatment was administered on 28-day cycles. […] Patients were randomized 1:1 to 28-day cycles to the following 2 regimens until a regimen was selected for further study: Regimen 1 (10 mg once daily intermittent (7 days on/7 days); Regimen 2 (6 mg once daily continuous). Randomization was stratified according to performance status (0 to 1 vs. 2), hemoglobin value (<10 vs. ≥10 g per dl), FGFR alteration type (mutation vs. fusion), prior treatment status (chemotherapy-resistant vs. chemotherapy naïve), and disease distribution (presence or absence of visceral [liver, lung, bone]metastases). Starting dose selection was based on phase 1 efficacy and tolerability.
Based on interim analysis and pharmacokinetic-pharmacodynamic modeling of serum phosphate levels, starting dose was increased to 8 mg per day continuous (Regimen 3). Thus, after interim analysis, this became a single-arm study. […] Treatment continued until disease progression or unacceptable adverse event(s) per investigator.
Safety was evaluated based on clinical laboratory tests, physical exams, electrocardiograms, and ophthalmology examinations. Adverse events and abnormalities were assessed by investigator and graded per NCI CTCAE v.4.0
Prophylactic measures were taken to minimize risk of common adverse events related to FGFR inhibition. To reduce risk of hyperphosphatemia, a low-phosphate diet was recommended for all patients (600 to 800 mg of dietary phosphate intake per day). To reduce the risk of skin effects, the application of alcohol-free emollient moisturizing cream and avoidance of unnecessary exposure to sunlight, soap, perfumed products, and hot baths was recommended. Patients were asked to keep their fingers and toes clean and nails trimmed to reduce risk of nail effects.
Additional ophthalmology examinations were performed if clinically indicated.

COc1cc(OC)cc(N(CCNC(C)C)c2ccc3ncc(-c4cnn(C)c4)nc3c2)c1 [erdafitinib, N-(3,5-dimethoxy-phenyl)-N′-(1-methylethyl)-N-[3-(1-methyl-1H-pyrazol-4-yl)quinoxalin-6-yl]ethane-1,2-diamine]
Decreased appetite, grade ≥ 3 [1]: 1 no.
Diarrhea, any grade [1]: 14 no.
Diarrhea, grade 1 [1]: 7 no.
Diarrhea, grade 2 [1]: 6 no.
Diarrhea, grade ≥ 3 [1]: 1 no.
Dry eye, any grade [1]: 3 no.
Dry eye, grade 1 [1]: 2 no.
Dry eye, grade 2 [1]: 1 no.
Dry eye, grade ≥ 3 [1]: 0 no.
Dry mouth, any grade [1]: 16 no.
Dry mouth, grade 1 [1]: 15 no.
Dry mouth, grade 2 [1]: 1 no.
Dry mouth, grade ≥ 3 [1]: 0 no.
Dry skin, any grade [1]: 9 no.
Dry skin, grade 1 [1]: 8 no.
Dry skin, grade 2 [1]: 1 no.
Dry skin, grade ≥ 3 [1]: 0 no.
Dysgeusia, any grade [1]: 10 no.
Dysgeusia, grade 1 [1]: 7 no.
Dysgeusia, grade 2 [1]: 3 no.
Dysgeusia, grade ≥ 3 [1]: 0 no.
Dyspepsia, any grade [1]: 3 no.
Dyspepsia, grade 1 [1]: 2 no.
Dyspepsia, grade 2 [1]: 1 no.
Dyspepsia, grade ≥ 3 [1]: 0 no.
Dyspnea, any grade [1]: 8 no.
Dyspnea, grade 1 [1]: 3 no.
Dyspnea, grade 2 [1]: 2 no.
Dyspnea, grade ≥ 3 [1]: 3 no.
Fatigue, any grade [1]: 6 no.
Fatigue, grade 1 [1]: 4 no.
Fatigue, grade 2 [1]: 2 no.
Fatigue, grade ≥ 3 [1]: 0 no.
Hand-foot syndrome, any grade [1]: 2 no.
Hand-foot syndrome, grade 1 [1]: 0 no.
Hand-foot syndrome, grade 2 [1]: 2 no.
Hand-foot syndrome, grade ≥ 3 [1]: 0 no.
Hematuria, any grade [1]: 3 no.
Hematuria, grade 1 [1]: 1 no.
Hematuria, grade 2 [1]: 2 no.
Hematuria, grade ≥ 3 [1]: 0 no.
Hyperphosphatemia, any grade [1]: 16 no.
Hyperphosphatemia, grade 1 [1]: 15 no.
Hyperphosphatemia, grade 2 [1]: 1 no.
Hyperphosphatemia, grade ≥ 3 [1]: 0 no.
Hypomagnesemia, any grade [1]: 2 no.
Hypomagnesemia, grade 1 [1]: 2 no.
Hypomagnesemia, grade 2 [1]: 0 no.
Hypomagnesemia, grade ≥ 3 [1]: 0 no.
Hyponatremia, any grade [1]: 2 no.
Hyponatremia, grade 1 [1]: 0 no.
Hyponatremia, grade 2 [1]: 0 no.
Hyponatremia, grade ≥ 3 [1]: 2 no.
Insomnia, any grade [1]: 3 no.
Insomnia, grade 1 [1]: 0 no.
Insomnia, grade 2 [1]: 3 no.
Insomnia, grade ≥ 3 [1]: 0 no.
Lacrimation increased, any grade [1]: 6 no.
Lacrimation increased, grade 1 [1]: 5 no.
Lacrimation increased, grade 2 [1]: 1 no.
Lacrimation increased, grade ≥ 3 [1]: 0 no.
Nail dystrophy, any grade [1]: 2 no.
Nail dystrophy, grade 1 [1]: 2 no.
Nail dystrophy, grade 2 [1]: 0 no.
Nail dystrophy, grade ≥ 3 [1]: 0 no.
Nausea, any grade [1]: 5 no.
Nausea, grade 1 [1]: 3 no.
Nausea, grade 2 [1]: 2 no.
Nausea, grade ≥ 3 [1]: 0 no.
Onycholysis, any grade [1]: 7 no.
Onycholysis, grade 1 [1]: 3 no.
Onycholysis, grade 2 [1]: 3 no.
Onycholysis, grade ≥ 3 [1]: 1 no.
Onychomadesis, any grade [1]: 1 no.
Onychomadesis, grade 1 [1]: 1 no.
Onychomadesis, grade 2 [1]: 0 no.
Onychomadesis, grade ≥ 3 [1]: 0 no.
Oropharyngeal pain, any grade [1]: 0 no.
Oropharyngeal pain, grade 1 [1]: 0 no.
Oropharyngeal pain, grade 2 [1]: 0 no.
Oropharyngeal pain, grade ≥ 3 [1]: 0 no.
Pain in extremity, any grade [1]: 5 no.
Pain in extremity, grade 1 [1]: 3 no.
Pain in extremity, grade 2 [1]: 1 no.
Pain in extremity, grade ≥ 3 [1]: 1 no.
Paronychia, any grade [1]: 2 no.
Paronychia, grade 1 [1]: 0 no.
Paronychia, grade 2 [1]: 2 no.
Paronychia, grade ≥ 3 [1]: 0 no.
Peripheral edema, any grade [1]: 5 no.
Peripheral edema, grade 1 [1]: 1 no.
Peripheral edema, grade 2 [1]: 4 no.
Peripheral edema, grade ≥ 3 [1]: 0 no.
Pyrexia, any grade [1]: 5 no.
Pyrexia, grade 1 [1]: 5 no.
Pyrexia, grade 2 [1]: 0 no.
Pyrexia, grade ≥ 3 [1]: 0 no.
Retinal detachment, any grade [1]: 2 no.
Retinal detachment, grade 1 [1]: 1 no.
Retinal detachment, grade 2 [1]: 1 no.
Retinal detachment, grade ≥ 3 [1]: 0 no.
Stomatitis, any grade [1]: 16 no.
Stomatitis, grade 1 [1]: 9 no.
Stomatitis, grade 2 [1]: 6 no.
Stomatitis, grade ≥ 3 [1]: 1 no.
Urinary tract infection, any grade [1]: 4 no.
Urinary tract infection, grade 1 [1]: 0 no.
Urinary tract infection, grade 2 [1]: 2 no.
Urinary tract infection, grade ≥ 3 [1]: 2 no.
Vision blurred, any grade [1]: 5 no.
Vision blurred, grade 1 [1]: 4 no.
Vision blurred, grade 2 [1]: 1 no.
Vision blurred, grade ≥ 3 [1]: 0 no.
Vomiting, any grade [1]: 9 no.
Vomiting, grade 1 [1]: 7 no.
Vomiting, grade 2 [1]: 2 no.
Vomiting, grade ≥ 3 [1]: 0 no.
Weight decreased, any grade [1]: 3 no.
Weight decreased, grade 1 [1]: 1 no.
Weight decreased, grade 2 [1]: 2 no.
Weight decreased, grade ≥ 3 [1]: 0 no.
CSR leading to discontinuation (in vivo): three patients
discontinuation due to grade 1 hyperphosphatemia (in vivo): One patient discontinued treatment
normalization of phosphate elevation (in vivo): normalized by cycle 5
retinal vein or artery occlusion (in vivo): no patient had retinal vein or artery occlusion
time of peak phosphate elevation after erdafitinib initiation (in vivo): 6 weeks
death as a result of an adverse event (myocardial infarction considered unrelated to treatment): One patient died as a result of an adverse event
patients with grade ≥3 treatment-emergent adverse events (overall trial population): 66%
some type of eye disorder, regardless of relation to treatment (patients overall): 54%
Patients with Alopecia, Grade ≥3 [2]: 0 no.
Patients with Decreased appetite, Grade ≥3 [2]: 0 no.
Patients with Dry mouth, Grade ≥3 [2]: 0 no.
Patients with Dry skin, Grade ≥3 [2]: 0 no.
Patients with Urinary tract infection, Grade 1 [2]: 0 no.
Patients with Vision blurred, Grade ≥3 [2]: 0 no.
Patients with Alopecia, Any grade [3]: 8 no.
Patients with Alopecia, Grade 2 [3]: 0 no.
Patients with Alopecia, Grade ≥3 [3]: 0 no.
Patients with Conjunctivitis, Grade 2 [3]: 0 no.
Patients with Conjunctivitis, Grade ≥3 [3]: 0 no.
Patients with Diarrhea, Grade ≥3 [3]: 0 no.
Patients with Dry skin, Grade ≥3 [3]: 0 no.
Patients with Dysgeusia, Grade ≥3 [3]: 0 no.
Patients with Hand-foot syndrome, Grade ≥3 [3]: 0 no.
Patients with Hyperphosphatemia, Grade ≥3 [3]: 0 no.
Patients with Lacrimation increased, Grade ≥3 [3]: 0 no.
Patients with Nausea, Grade ≥3 [3]: 0 no.
Patients with Onychomadesis, Grade ≥3 [3]: 0 no.
Patients with Paronychia, Grade ≥3 [3]: 0 no.
Patients with Retinal detachment, Grade ≥3 [3]: 0 no.
Patients with Arrhythmia-related events, Any grade [4]: 0 no.
Patients with Arrhythmia-related events, Grade ≥3 [4]: 0 no.
Patients with Alopecia, Grade ≥3 [5]: 0 no.
Patients with Conjunctivitis, Grade ≥3 [5]: 0 no.
Patients with Decreased appetite, Grade ≥3 [5]: 0 no.
Patients with Diarrhea, Grade 2 [5]: 5 no.
Patients with Dry mouth, Grade ≥3 [5]: 0 no.
Patients with Dry skin, Grade ≥3 [5]: 0 no.
Patients with Dysgeusia, Grade ≥3 [5]: 0 no.
Patients with Fatigue, Grade ≥3 [5]: 0 no.
Patients with Hand-foot syndrome, Grade 1 [5]: 0 no.
Patients with Hand-foot syndrome, Grade ≥3 [5]: 0 no.
Patients with Hyperphosphatemia, Grade ≥3 [5]: 0 no.
Patients with Lacrimation increased, Grade 2 [5]: 0 no.
Patients with Lacrimation increased, Grade ≥3 [5]: 0 no.
Patients with Nausea, Grade ≥3 [5]: 0 no.
Patients with Onychomadesis, Grade 2 [5]: 0 no.
Patients with Onychomadesis, Grade ≥3 [5]: 0 no.
Patients with Paronychia, Grade 1 [5]: 0 no.
Patients with Paronychia, Grade ≥3 [5]: 0 no.
Patients with Retinal detachment, Grade ≥3 [5]: 0 no.
Patients with Vision blurred, Grade ≥3 [5]: 0 no.
